Results on 1 compound are retold here after ChEMBL document CHEMBL5375952, “Discovery of Novel 8-Hydroxyquinoline Derivatives with Potent In Vitro and In Vivo Antifungal Activity” (J Med Chem, 2023).

Structures are written as SMILES.

Assay [1] has as its system Candida albicans. Briefly: Synergistic antifungal activity against FLC-resistant Candida albicans 11 assessed as MIC of FLC incubated for 48 hrs by broth microdilution method. The format is functional. A general note: Broth dilution looks for growth in wells or tubes with falling amounts of substance.
Assay [2] deals with Candida albicans. Briefly: Synergistic antifungal activity against FLC-resistant Candida albicans 710419 assessed as fractional inhibitory concentration index incubated for 48 hrs in presence of FLC by broth microdilution method. The format is functional.

Broadly, the MIC is the least concentration at which growth counts as inhibited.

As to `CCN(CC)c1ccc(C(NC(=O)C(C)C)c2ccc3cccnc3c2O)cc1` (configuration not stated), the MIC in the assay with Candida albicans [1] stood at 0.25 µg/mL. Besides, in the assay with Candida albicans [2], the “fractional inhibitory concentration index (FICI)” value is recorded as 0.064.
